The values that follow come from EPA's ToxValDB 9.5 (doi:10.2903/j.efsa.2016.4584).

One series deals with Apis mellifera. Conditions: acute, mortality.
A further series concerns Anas platyrhynchos. Conditions: acute; oral; unspecified; mortality.
In a further series the test system is Mus musculus. To be noted: chronic; duration: 18 months; body weight.
A further series has as its system Tagia sp. To be noted: chronic/long-term; duration: 56 days; growth.
The subject of a further series is Landoltia sp. To be noted: chronic/long-term; duration: 8 weeks; frond number.
The test system of a further series is Folsomia candida. Conditions: chronic/long-term; duration: 28 days; mortality.
The next series concerns Canidae. Conditions: subchronic; duration: 90 days; oral; Dog Other.
A further series relates to Oncorhynchus mykiss. To be noted: acute; duration: 96 hours; mortality.

A value given as a limit tells only on which side of the number the result lay.

Turning to `COC(=O)c1ccc(CNS(C)(=O)=O)cc1S(=O)(=O)NC(=O)Nc1nc(OC)cc(OC)n1` [Mesosulfuron-methyl], the LD50 is over 100 µg/piece with Apis mellifera (dermal); over 106 µg/piece in the series on Apis mellifera (oral, unspecified); over 2000 mg/kg-day in the series with Anas platyrhynchos; over 2000 mg/kg-day with Colinus virginianus (acute, oral, mortality); over 5000 mg/kg in the series on Rattus norvegicus (acute, oral, mortality). Besides, the figures for the NOAEL in the series with Mus musculus and with Canidae were 103 mg/kg-day and 648 mg/kg-day, respectively. Besides, the NOEC in the series with Tagia sp. is 125 mg/kg; in the series with Landoltia sp. it was 0.000388 mg/L; with Folsomia candida, 1000 mg/kg. Further, the NOEL in the series with Colinus virginianus (chronic) came out at 93 mg/kg-day; in the series on Rattus norvegicus (reproduction developmental, no effects), 840 mg/kg-day. In the series on Oncorhynchus mykiss, the 50% lethal concentration (LC50) (in general, the concentration that kills 50% of the test population) is over 100 µg/mL.
